Test results: patent US20060084627A1, “Synergistic interaction of abacavir and alovudine” (Medivir AB, priority 2002, published 2006)

Columns and labels:
multiresistant HIV = conditions: patients, alovudine 7.5 mg qd add-on for four weeks
Method: A phase IIa trial was performed with 15 patients failing their current NRTI-containing regimens. Each patient had HIV RNA>1000 cp/ml, with at least 2 mutations in the viral RT induced by previous viral therapy, as established by genotypic assay.
The patents were administered qd 7.5 mg alovudine in a conventional carrier in addition to their current regimen for four weeks. The current regimes included various permutations of 3-5 HIV antivirals selected from 3TC, ddI, D4T, nevirapine, DMP, ritonavir, kaletra, saquinavir, amprenavir and indinavir, administered in their conventional dosage forms and regimens. Antiviral load evaluation was performed weekly and then four weeks after discontinuation of alovudine.
As this clinical trial was performed as an add-on therapy to the patients pre-existing regime, it will be appreciated that the alovudine qd was administered in a separate dosage form to the abacavir (typically bd) and other antvirals (typically administered […]).

HIV-1, IIIb = assay: microbe, parasite or virus in culture; assay type: cell-based; conditions: Human immunodeficiency virus 1, IIIB, MT4; alovudine alone at 0.003 uM, FIG. 3
Method: The antiviral effects of MIV-310 in combination with other NRTIs on HIV-1 replication in MT4 cells were examined by the median effect method (Chao and Talalay 1983). The assay was performed in microtiter plates with each well containing 10^5 cells and 20-50 tissue culture infective doses of HIV-1, IIIb. Each drug alone and a mixture of the drugs in a constant ratio were serially diluted in 2-fold steps and added to the wells in quadruplicates. The constant ratio is selected to reflect the relative potency of the drugs. […] The anti-viral effect was measured day 5 using the XTT calorimetric method.
A combination index (CI) less than 1 indicates synergism, CI equal to zero indicates addition and a CI greater than 1 indicates antagonism. Once again, the combinations have been tested at molar ratios reflecting their relative ED50s in cell culture.

**Q.** `Cc1cn([C@H]2C[C@H](F)[C@@H](CO)O2)c(=O)[nH]c1=O` [alovudine, 3′-deoxy-3′-fluorothymidine] was tested. Which serious adverse events (multiresistant HIV) did it give?
**A.** no serious adverse events

**Q.** What about the tolerability (multiresistant HIV) of the same molecule?
**A.** generally well tolerated

**Q.** What about the “transient mean increase in CD4 counts” value (multiresistant HIV) of the same molecule?
**A.** +52 counts/mm^3

**Q.** And the inhibition at 0.003 µM (HIV-1, IIIb)?
**A.** 27%
